Results taken from patent publication US4870160A, “Polypeptides with laminin activity” (Regents of the University of Minnesota, priority 1987, dated 1989).
Peptide text beside a SMILES is read from it.

How the values were obtained:
[1] = system: Bovine aortic endothelial cells; test: Aortic endothelial cell adhesion assay (Example 5); format: cell-based; conditions: 0.1; 1.0; and 10.0 μg/per well adsorbed, 120 minutes at 37° C, FIG. 9
Description: Bovine aortic endothelial cells were isolated according to the following protocol. Aortas were obtained from a local slaughterhouse, washed in cold phosphate buffered saline (PBS) (136 mM NaCl, 2.6 mM KCl, 15.2 mM Na2HP04, pH 7.2) and processed within 2 hours. Crude collagenase (CLS III, 125-145 units per mg dry weight, Cooper Biomedical) was used at 2 mg/ml in Dulbecco's modified Eagle's medium (DMEM) (GIBCO). The vessel was clamped at the distal end, filled with the collagenase-PBS solution and digestion was carried out for 10 minutes. The lumenal contents were harvested, followed by the addition of fresh collagenase for two additional 10-minute periods. The enzyme-cell suspensions were added to an equal volume of DMEM containing 10% fetal bovine serum (FBS) to inhibit the enzyme and spun in a centrifuge at 400×g for 10 minutes. The resulting cell pellet was resuspended in DMEM containing 10% FBS, 100 units/ml of penicillin G, 100 μg/ml of streptomycin and 100 μg/ml of crude fibroblast growth factor. Cells are cultured in 75 cm^2 flasks in a humidified 5% CO2 atmosphere at 37° C. Cultures were fed twice a week with the same medium and cells were used in assays when approximately 75% confluent. Cells were identified as endothelial in nature by characteristic cobblestone morphology, contact inhibition of growth upon reaching confluency, and positive immunofluorescent staining for factor VIII:RAg (Miles Laboratories) [S. Schwartz, In Vitro, 14, 966 (1978)]. Only endothelial cells, megakaryocytes and platelets are known to contain the factor VIII:RAg. This method routinely gives a high yield of endothelial cells with little contamination (less than 5%) by smooth muscle cells, pericytes or fibroblasts as judged by phase contrast microscopy as well as by immunostaining.
Adhesion was measured using 96 well microtiter plates adsorbed with three different amounts (0.1; 1.0; and 10.0 μg/per well) of peptides 9, 11-18, BSA and laminin. Cultures of cells which were 60-80% confluent were metabolically labeled for 24 hours with the addition of 3 mCi/ml of ^3 H-amino acid mixture. On the day of the assay, the cells were harvested by trypsinization, the trypsin was inhibited by the addition of serum, and the cells were washed free of this mixture and resuspended in DMEM buffered with HEPES at pH 7.2. The adhesion medium also contained 2 mg/ml BSA. The cells were adjusted to a concentration of 3-4×10^4 /ml and 100 μls of this cell suspension was added to the wells. The assay mixture was then incubated at 37° C for 120 minutes. […] The solubilized cells were then quantitated using a liquid scintillation counter. […]

[2] = system: Murine fibrosarcoma cells (uv-2237-MM); test: Cell adhesion assay for MM fibrosarcoma cell line (Example 6B); format: cell-based; conditions: FIG. 11
Description: (§1) Adhesion was measured using 96 well microtiter plates adsorbed with three different amounts (0.1; 1.0; and 10.0 μg/per well) of peptides 9, 11-18, BSA and laminin. Cultures of cells which were 60-80% confluent were metabolically labeled for 24 hours with the addition of 3 mCi/ml of ^3 H-amino acid mixture. On the day of the assay, the cells were harvested by trypsinization, the trypsin was inhibited by the addition of serum, and the cells were washed free of this mixture and resuspended in DMEM buffered with HEPES at pH 7.2. The adhesion medium also contained 2 mg/ml BSA. The cells were adjusted to a concentration of 3-4×10^4 /ml and 100 μls of this cell suspension was added to the wells. The assay mixture was then incubated at 37° C for 120 minutes. At the end of the incubation, the wells were washed with warm PBS containing 10 mM Ca^++, and the adherent population was solubilized with 0.5N NaOH containing 1% sodium dodecyl sulfate. The solubilized cells were then quantitated using a liquid scintillation counter. Each determination was done in triplicate.
Murine fibrosarcoma cells (uv-2237-MM) were originally provided by Dr. I. J. Fidler of Anderson Hospital, University of Texas Health Sciences Center, Houston, Tex. Culturing, labeling and harvesting techniques were as described in part A. Cell adhesion assay was performed as described in Example 5.

[3] = system: PC12 rat pheochromocytoma cells; test: Cell adhesion assay for PC12 pheochromocytoma cell line (Example 6D); format: cell-based; conditions: FIG. 13
Description: as §1
PC12 rat pheochromocytoma cells were provided by Dr. P. Letourneau of the Department of Anatomy, University of Minnesota, Minneapolis, Minn. Culturing techniques were as described in part A. Labelling and harvesting techniques were as described in Example 5. Cell adhesion assay was performed as described in Example 5.

[4] = Heparin binding to peptides coated on 96-well plastic plates (Example 2); conditions: 1 mg/ml to 1 μg/ml, two hours at 37° C., FIG. 5
Description: In order to test the ability of the synthesized peptides (9 and 11-18) to bind to 96-well plastic plates (in which experiments with cultured cell lines can be performed), we did an experiment similar to that described above in Example 1. Stock solutions of peptides 9 and 11-18, laminin and BSA at a maximum concentration of 1 mg/ml were prepared and serially diluted in PBS+NaN3 producing final concentration from 1 mg/ml to 1 μg/ml. Fifty μl from each concentration was coated on the 96-well plates and left to dry overnight at 28° C. Then, wells were treated for two hours with […] of 2 mg/ml BSA in 6 mM phosphate, 100 mM NaCl, 68 μM CaCl2, pH 6.8 (wash buffer) in order to minimize non-specific binding. Next 50 μls of ^3 H-heparin (10 μg/ml) was added (50,000 cpm/well) for two hours at 37° C. The wells were then washed three times with wash buffer containing 0.05% Triton X-100 and finally they were incubated for thirty minutes at 60 C with 200 μl of 0.5 N NaOH and 1% SDS. The amount of ^3 H-heparin bound at each peptide concentration was quantitated as described above in Example 1.

intact, native laminin = intact, native laminin (Mus musculus, UniProt P02469+P19137); test: Inhibition of heparin binding to laminin by peptide fragments in solution (Example 3); conditions: peptides in solution 1 mg/ml to 1 μg/ml, laminin coated on plastic at 60 μg/ml, FIG. 6
Description: Peptides 9, 11-14 and 16 in solution (and not absorbed to plastic), were screened for the ability to inhibit the binding of heparin to intact, native laminin coated on plastic. This experimental approach avoids problems due to differential coating of peptides in heparin binding assays. Laminin at 60 μg/ml in PBS was coated on 96-well plates, using 50 μls per well and dried overnight at 28+ C. The wells were then treated for two hours with 2 mg/ml BSA in wash buffer (described above in Example 2). Peptides at various dilutions ranging from 1 mg/ml to 1 μg/ml in PBS and CHAPS (Cholamido-propyl-dimethyl-Axmmonio-PropaneSulfonate)(a detergent used to avoid non-specific sticking) were co-incubated with a standard amount of ^3 H-heparin (25,000 cpm per well 5 μg/ml final concentration) for two hours at 37° C. and the mixture was then transferred to the laminin coated plate (50 μl) and allowed to incubate for another two hours at 37° C. The wells were then washed and radioactivity was counted as described above.

SMILES	endothelial cell adhesion [1]	cell adhesion [2]	cell adhesion [3]	binding of ^3 H-heparin [4]	inhibition of binding of heparin to laminin (intact, native laminin)
CC[C@H](C)[C@H](NC(=O)[C@H](CCCCN)NC(=O)[C@H](CC(C)C)NC(=O)[C@H](C)NC(=O)[C@H](CCCCN)NC(=O)[C@H](C)NC(=O)[C@H](CCCCN)NC(=O)[C@H](CCC(=O)O)NC(=O)[C@H](CC(C)C)NC(=O)[C@H](Cc1ccccc1)NC(=O)[C@H](CCCCN)NC(=O)[C@H](Cc1c[nH]cn1)NC(=O)[C@@H](NC(=O)[C@H](CCCNC(=N)N)NC(=O)[C@H](CC(N)=O)NC(=O)[C@@H](NC(=O)[C@H](CC(C)C)NC(=O)[C@@H](N)CCC(=O)O)[C@@H](C)O)[C@@H](C)O)C(=O)O [Peptide F13, ELTNRTHKFLEKAKALKI] (H-ELTNRTHKFLEKAKALKI-OH)	potent promoters of endothelial cell adhesion	potent promoters of cell adhesion	potent promoters of cell adhesion	binds heparin but less extensively	interact most strongly with heparin
CSCC[C@H](NC(=O)CNC(=O)[C@H](CCCCN)NC(=O)[C@H](CCC(=O)O)NC(=O)[C@H](Cc1ccccc1)NC(=O)[C@H](CS)NC(=O)[C@@H](NC(=O)[C@@H]1CCCN1C(=O)[C@H](CCCNC(=N)N)NC(=O)[C@@H]1CCCN1C(=O)[C@H](CC(C)C)NC(=O)[C@@H](NC(=O)[C@@H](NC(=O)[C@H](Cc1ccc(O)cc1)NC(=O)[C@@H](N)CCCNC(=N)N)C(C)C)C(C)C)C(C)C)C(=O)N[C@@H](CC(N)=O)C(=O)N[C@@H](Cc1ccc(O)cc1)C(=O)N[C@H](C(=O)N[C@H](C(=O)N[C@@H](CCCNC(=N)N)C(=O)O)C(C)C)[C@@H](C)O [Peptide F9] (H-RYVVLPRPVCFEKGMNYTVR-OH)	potent promoters of endothelial cell adhesion	potent promoters of cell adhesion	potent promoters of cell adhesion	bind heparin very well	interact most strongly with heparin
